Measurements: US12565488B2, “Inhibitors of influenza virus replication” (COCRYSTAL PHARMA, INC., priority 2018, dated 2026)

Test system: Influenza type A (strain A/PR/8/34, ATCC VR-95)
Experiment: Influenza antiviral assay: inhibition of virus-induced cytopathic effects (CPE) in MDCK cells, XTT dye reduction
Format: cell-based
Conditions: Influenza A (H1N1) replication in MDCK cells, CPE reduction by XTT at 4 days post-infection; read-out: Influenza H1N1 affinity, EC50

`O=C(NCC1c2ccccc2COc2ccccc21)c1c(O)c(=O)ccn1CC1c2ccccc2COc2ccccc21` (stereo not shown) [Compound 50] was tested, and the EC50 was 1 to 10 µM.

Same assay, conditions: Influenza A virus, H1N1 / PR/8, MDCK, 96 h, Influenza A (H1N1) replication in MDCK cells, CPE reduction by XTT at 4 days post-infection; read-out: Influenza H1N1 affinity, EC50

First: O=C(O)c1c(O)c(=O)ccn1NC1CCCOc2ccccc21 (stereo not shown) [Compound 1]
Second: CNC(=O)c1c(O)c(=O)ccn1NC1CCCN(C)c2ccccc21 (stereo not shown) [Compound 46]
The EC50 of the first is lower: 10 to 100 µM for the first, over 100 µM for the second.

Compared with `O=C(O)c1c(O)c(=O)ccn1NC1c2ccccc2COc2ccccc21` (stereo not shown) [Compound 2, 1-((6,11-dihydrodibenzo[b,e]oxepin-11-yl)amino)-3-hydroxy-4-oxo-1,4-dihydropyridine-2-carboxylic acid], `CN(C)C(=O)c1c(O)c(=O)ccn1NC1c2ccccc2COc2ccccc21` (stereo not shown) [Compound 5] is higher in EC50: 10 to 100 µM for the first, over 100 µM for the second. The first is the more potent here.

`O=c1ccn(NC2c3ccccc3COc3ccccc32)cc1O` (stereo not shown) [Compound 4] and `CN(C1c2ccccc2COc2ccccc21)n1ccc(=O)c(O)c1` (stereo not shown) [Compound 28] cannot be ordered by EC50: over 100 µM for the first, over 100 µM for the second.

First: CN(Cc1ccccc1)C(=O)c1c(O)c(=O)ccn1NC1c2ccccc2COc2ccccc21 (stereo not shown) [Compound 6]
Second: CN(Cc1ccccc1)C(=O)c1c(O)c(=O)ccn1CC1c2ccccc2COc2ccccc21 (stereo not shown) [Compound 57]
The EC50 of the first is lower: 1 to 10 µM for the first, over 100 µM for the second.

`O=C(NCCOCCO)c1c(O)c(=O)ccn1NC1CCCNc2ccccc21` (stereo not shown) [Compound 8] and `O=C(NCCOCCO)c1c(O)c(=O)ccn1NC1CCCN(Cc2ccccc2)c2ccccc21` (stereo not shown) [Compound 17] cannot be ordered by EC50: over 100 µM for the first, over 100 µM for the second.

`COC(=O)c1c(O)c(=O)ccn1NC1CCCN(Cc2ccc(OC)cc2)c2ccccc21` (stereo not shown) [Compound 9] and `CNC(=O)c1c(O)c(=O)ccn1NC1CCCN(Cc2ccccc2)c2ccccc21` (stereo not shown) [Compound 54] cannot be ordered by EC50: over 100 µM for the first, over 100 µM for the second.

`CC(C)NC(=O)c1c(O)c(=O)ccn1N(C)C1c2ccccc2COc2ccccc21` (stereo not shown) [Compound 10] and `CNC(=O)c1c(O)c(=O)ccn1N(C)C1c2ccccc2COc2ccccc21` (stereo not shown) [Compound 25] cannot be ordered by EC50: over 100 µM for the first, over 100 µM for the second.

`O=C(Nc1ccccc1)c1c(O)c(=O)ccn1NC1c2ccccc2COc2ccccc21` (stereo not shown) [Compound 11] and `O=C(Nc1cccc(O)c1)c1c(O)c(=O)ccn1NC1c2ccccc2COc2ccccc21` (stereo not shown) [Compound 19] cannot be ordered by EC50: over 100 µM for the first, over 100 µM for the second.

`O=c1ccn(NC2CCOCc3ccccc32)cc1O` (stereo not shown) [Compound 12] and `CNC(=O)c1c(O)c(=O)ccn1NC1CCOCc2ccccc21` (stereo not shown) [Compound 56] cannot be ordered by EC50: over 100 µM for the first, over 100 µM for the second.

Compared with `O=C(Nc1cccc(C(F)(F)F)c1)c1c(O)c(=O)ccn1NC1c2ccccc2COc2ccccc21` (stereo not shown) [Compound 13, 1-((6,11-dihydrodibenzo[b,e]oxepin-11-yl)amino)-3-hydroxy-4-oxo-N-(3-(trifluoromethyl)phenyl)-1,4-dihydropyridine-2-carboxamide], `O=C(Nc1ccc(C(F)(F)F)cc1)c1c(O)c(=O)ccn1NC1c2ccccc2COc2ccccc21` (stereo not shown) [Compound 35] is higher in EC50: 1 to 10 µM for the first, over 100 µM for the second. The first is the more potent here.

`CN(C1c2ccccc2COc2ccccc21)n1ccc(=O)c(O)c1C(=O)NCc1ccccc1` (stereo not shown) [Compound 18] and `CN(C1c2ccccc2COc2ccccc21)n1ccc(=O)c(O)c1C(=O)Nc1ccccc1` (stereo not shown) [Compound 34] cannot be ordered by EC50: over 100 µM for the first, over 100 µM for the second.

`O=C(Nc1ccc(O)cc1)c1c(O)c(=O)ccn1NC1c2ccccc2COc2ccccc21` (stereo not shown) [Compound 20] and `O=C(NCc1ccc(O)cc1)c1c(O)c(=O)ccn1NC1c2ccccc2COc2ccccc21` (stereo not shown) [Compound 32] cannot be ordered by EC50: over 100 µM for the first, over 100 µM for the second.

`O=C(Nc1cccc2ccccc12)c1c(O)c(=O)ccn1NC1c2ccccc2COc2ccccc21` (stereo not shown) [Compound 21] and `O=C(NCc1cccc2ccccc12)c1c(O)c(=O)ccn1NC1c2ccccc2COc2ccccc21` (stereo not shown) [Compound 24] cannot be ordered by EC50: over 100 µM for the first, over 100 µM for the second.

First: O=C(NCc1ccc2ccccc2c1)c1c(O)c(=O)ccn1NC1c2ccccc2COc2ccccc21 (stereo not shown) [Compound 22]
Second: O=C(Nc1ccc2ccccc2c1)c1c(O)c(=O)ccn1NC1c2ccccc2COc2ccccc21 (stereo not shown) [Compound 47]
The EC50 of the first is lower: 1 to 10 µM for the first, over 100 µM for the second. The first is the more potent here.

First: O=C(NCc1ccc(-c2ccccc2)cc1)c1c(O)c(=O)ccn1NC1c2ccccc2COc2ccccc21 (stereo not shown) [Compound 23, N-(Biphenyl-4-ylmethyl)-1-(6,11-dihydrodibenzo[b,e]oxepin-11-ylamino)-3-hydroxy-4-oxo-1,4-dihydropyridine-2-carboxamide]
Second: O=C(NCc1cccc(-c2ccccc2)c1)c1c(O)c(=O)ccn1NC1c2ccccc2COc2ccccc21 (stereo not shown) [Compound 33]
The EC50 of the first is lower: 1 to 10 µM for the first, over 100 µM for the second. The first is the more potent here.

`COC(=O)c1c(O)c(=O)ccn1N(Cc1ccccc1)C1c2ccccc2COc2ccccc21` (stereo not shown) [Compound 26] and `CNC(=O)c1c(O)c(=O)ccn1N(Cc1ccccc1)C1c2ccccc2COc2ccccc21` (stereo not shown) [Compound 72] cannot be ordered by EC50: over 100 µM for the first, over 100 µM for the second.

`O=c1ccn(N(Cc2ccccc2)C2c3ccccc3COc3ccccc32)cc1O` (stereo not shown) [Compound 27] and `O=C(NCc1ccccc1)c1c(O)c(=O)ccn1CC1c2ccccc2COc2ccccc21` (stereo not shown) [Compound 51] cannot be ordered by EC50: over 100 µM for the first, over 100 µM for the second.

`O=C(NCc1cccc(O)c1)c1c(O)c(=O)ccn1NC1c2ccccc2COc2ccccc21` (stereo not shown) [Compound 29] and `O=C(NCc1cccc(C(F)(F)F)c1)c1c(O)c(=O)ccn1NC1c2ccccc2COc2ccccc21` (stereo not shown) [Compound 37] cannot be ordered by EC50: over 100 µM for the first, over 100 µM for the second.

`O=C(Nc1cccc(-c2ccccc2)c1)c1c(O)c(=O)ccn1NC1c2ccccc2COc2ccccc21` (stereo not shown) [Compound 30] and `O=C(Nc1ccc(-c2ccccc2)cc1)c1c(O)c(=O)ccn1NC1c2ccccc2COc2ccccc21` (stereo not shown) [Compound 36] cannot be ordered by EC50: over 100 µM for the first, over 100 µM for the second.

`O=C(NCc1ccc(C(F)(F)F)cc1)c1c(O)c(=O)ccn1NC1c2ccccc2COc2ccccc21` (stereo not shown) [Compound 31] and `O=C(Nc1cccc(C(F)(F)F)c1)c1c(O)c(=O)ccn1CC1c2ccccc2COc2ccccc21` (stereo not shown) [Compound 48] cannot be ordered by EC50: over 100 µM for the first, over 100 µM for the second.

`CNC(=O)c1c(O)c(=O)ccn1CC(c1ccccc1)c1ccccc1` [Compound 38] and `CNC(=O)c1c(O)c(=O)ccn1NC(c1ccccc1)c1ccccc1` [Compound 61] cannot be ordered by EC50: over 100 µM for the first, over 100 µM for the second.

`CN(C(c1ccccc1)c1ccccc1)n1ccc(=O)c(O)c1` [Compound 39] and `O=C(O)c1c(O)c(=O)ccn1NC(c1ccccc1)c1ccccc1` [Compound 67] cannot be ordered by EC50: over 100 µM for the first, over 100 µM for the second.

Compared with `O=C(O)c1c(O)c(=O)ccn1NC1c2ccccc2SCc2c1ccc(F)c2F` (stereo not shown) [Compound 40, 1-((7,8-difluoro-6,11-dihydrodibenzo[b,e]thiepin-11-yl)amino)-3-hydroxy-4-oxo-1,4-dihydropyridine-2-carboxylic acid], `CNC(=O)c1c(O)c(=O)ccn1NC1c2ccccc2SCc2c1ccc(F)c2F` (stereo not shown) [Compound 41] is higher in EC50: 1 to 10 µM for the first, over 100 µM for the second.

First: O=C(NCC(F)(F)F)c1c(O)c(=O)ccn1NC1c2ccccc2SCc2c1ccc(F)c2F (stereo not shown) [Compound 42, 1-((7,8-difluoro-6,11-dihydrodibenzo[b,e]thiepin-11-yl)amino)-3-hydroxy-4-oxo-N-(2,2,2-trifluoroethyl)-1,4-dihydropyridine-2-carboxamide]
Second: O=c1ccn(NC2c3ccccc3SCc3c2ccc(F)c3F)cc1O (stereo not shown) [Compound 43, 1-((7,8-difluoro-6,11-dihydrodibenzo[b,e]thiepin-11-yl)amino)-3-hydroxypyridin-4(1H)-one]
The EC50 of the first is lower: 1 to 10 µM for the first, over 100 µM for the second.

`CNC(=O)c1c(O)c(=O)ccn1NC1CCN(Cc2ccccc2)c2ccccc21` (stereo not shown) [Compound 44] and `CNC(=O)c1c(O)c(=O)ccn1NC1CCN(C)c2ccccc21` (stereo not shown) [Compound 45] cannot be ordered by EC50: over 100 µM for the first, over 100 µM for the second.

`O=C(Nc1ccccc1)c1c(O)c(=O)ccn1CC1c2ccccc2COc2ccccc21` (stereo not shown) [Compound 49] and `CNC(=O)c1c(O)c(=O)ccn1CC1c2ccccc2COc2ccccc21` (stereo not shown) [Compound 52] cannot be ordered by EC50: over 100 µM for the first, over 100 µM for the second.

`O=C(O)c1c(O)c(=O)ccn1NC1c2cc(Cl)ccc2COc2ccc(Cl)cc21` (stereo not shown) [Compound 58, 1-((2,9-dichloro-6,11-dihydrodibenzo[b,e]oxepin-11-yl)amino)-3-hydroxy-4-oxo-1,4-dihydropyridine-2-carboxylic acid] and `O=C(O)c1c(O)c(=O)ccn1NC1c2ccccc2COc2cc(Cl)c(Cl)cc21` (stereo not shown) [Compound 60] fall in the same range of EC50: 10 to 100 µM for the first, 10 to 100 µM for the second.

`O=C(O)c1c(O)c(=O)ccn1NC1c2ccccc2CSc2ccccc21` (stereo not shown) [Compound 59] and `O=C(O)c1c(O)c(=O)ccn1NC1c2ccccc2CSc2cc(Cl)c(Cl)cc21` (stereo not shown) [Compound 77] fall in the same range of EC50: 10 to 100 µM for the first, 10 to 100 µM for the second.

Compared with `O=C(O)c1c(O)c(=O)ccn1NC1c2ccccc2OCc2c(F)cccc21` (stereo not shown) [Compound 66], `CNC(=O)c1c(O)c(=O)ccn1NC1c2ccccc2OCc2c(F)cccc21` (stereo not shown) [Compound 74] is higher in EC50: 10 to 100 µM for the first, over 100 µM for the second. The first is the more potent here.

`O=C(O)c1c(O)c(=O)ccn1NC(c1cccc2ccccc12)c1cccc2ccccc12` [Compound 68] and `CNC(=O)c1c(O)c(=O)ccn1NC(c1cccc2ccccc12)c1cccc2ccccc12` [Compound 69] cannot be ordered by EC50: over 100 µM for the first, over 100 µM for the second.

First: O=C(O)c1cn(CC2c3ccccc3COc3ccccc32)c(C(=O)O)c(O)c1=O (stereo not shown) [Compound 73]
Second: O=C(O)c1c(O)c(=O)ccn1NC1c2ccccc2OCc2c1ccc(F)c2F (stereo not shown) [Compound 75]
The EC50 of the first is higher: over 100 µM for the first, 10 to 100 µM for the second.

`CNC(=O)c1c(O)c(=O)ccn1NC1c2ccccc2COc2cc(Cl)c(Cl)cc21` (stereo not shown) [Compound 76, 1-((2,3-dichloro-6,11-dihydrodibenzo[b,e]oxepin-11-yl)amino)-3-hydroxy-N-methyl-4-oxo-1,4-dihydropyridine-2-carboxamide] and `CNC(=O)c1c(O)c(=O)ccn1NC1c2ccccc2CSc2cc(Cl)c(Cl)cc21` (stereo not shown) [Compound 79, 1-((2,3-dichloro-6,11-dihydrodibenzo[b,e]thiepin-11-yl)amino)-3-hydroxy-N-methyl-4-oxo-1,4-dihydropyridine-2-carboxamide] cannot be ordered by EC50: over 100 µM for the first, over 100 µM for the second.

With `CNC(=O)c1c(O)c(=O)ccn1NC1c2ccccc2CSc2cc(F)c(F)cc21` (stereo not shown) [Compound 78] the EC50 was 1 to 10 µM.

Same assay, conditions: Influenza A virus, H1N1 / PR/8, MDCK, 96 h, read-out: Influenza H1N1 affinity, EC50

Molecule `CNC(=O)c1cn(CC2c3ccccc3COc3ccccc32)c(C(=O)NC)c(O)c1=O` (stereo not shown) [Compound 65, 1-((6,11-dihydrodibenzo[b,e]oxepin-11-yl)methyl)-3-hydroxy-N2,N5-dimethyl-4-oxo-1,4-dihydropyridine-2,5-dicarboxamide] has an EC50 of over 100 µM.
